Measurements from PMC11212260, “Next-generation neuropeptide Y receptor small-molecule agonists inhibit mosquito-biting behavior” (Parasites & Vectors, 2024).
Where “and” joins values, the source holds several entries; their conditions need not be identical. Equal entries are not always repeated. Where two headings read alike, the source gives them in different places.

Experiments:
[1] = tested on: Aedes aegypti (Orlando strain) females; assay: Glytube feeding: females feeding to repletion and weight per female (meal palatability); format: in vivo; details: Supplemental Figure 1 Panel A; compounds of Fig 3; individual replicate values
Method: Groups of 60–150 females were placed in bucket cages with a diameter of 21.6 cm and height of 16.5 cm (VWR) and fasted with access to water for 24 h prior to feeding. Meals were delivered to females via Glytube membrane feeders as described previously. Meals consisted of 1.5 ml sheep blood (HemoStat Laboratories), saline (400 mM NaHCO3 + dih2O), or saline and test compound. Lyophilized compounds were stored at room temperature until use. High-concentration stocks (30 mM in 100% dimethyl sulfoxide [DMSO]) (Sigma-Aldrich) were stored at −20 °C and diluted in saline immediately prior to feeding. Once prepared, meals and glycerol heating elements were warmed in a 42 °C water bath for 15 min to provide warmth to attract mosquitos to feed. ATP (1 mM final concentration) and test compounds (1 μM final concentration) were added prior to placing the meal on top of the mesh on the cage containing female mosquitos. Females were allowed 15–20 min to feed to repletion. Abdominal engorgement was scored by eye and confirmed by weighing females to ensure full feeding (Data S1). […] Females were returned to their original cage with a diH2O wick for 48 h prior to behavioral testing. The lethality of each compound was measured by counting the number of dead females in each cage 24 h post-meal.
Supplementary file 13071_2024_6347_MOESM1_ESM.png: Supplementary Material 1: Figure 1. […] (A) Percent of females feeding to repletion and (B) weight per female after feeding on the indicated meal used for testing in Miniport olfactometer experiments in Figure 3B. (C) Percent of females feeding to repletion and (D) weight per female after feeding on the indicated meal used for testing in live host assays in Figure 4. Data are shown as mean with standard deviation. n = 2–22 replicate cages, 60–150 females/cage. Females were weighed in groups of five to ensure reliable readings. Kruskal–Wallis with Dunn’s multiple comparisons to saline-fed group, ns P > 0.01, * P < 0.01, *** P < 0.0001. (PNG 321 KB)

[2] = tested on: Aedes aegypti (Orlando strain) females; assay: Host-seeking screening assay (miniport olfactometer); format: in vivo; details: fed 1 μM in saline, tested 48 h post-meal
Procedure, shortened: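 Fasted Orlando-strain females fed saline meals (400 mM NaHCO3) with 1 mM ATP and test compound at 1 μM final via warmed membrane feeders; lethality counted 24 h post-meal. At 48 h, attraction to human-scented stocking plus 5% CO2 scored over 5 min, normalized to matched saline-fed controls.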

Ae. aegypti NPYLR7 = Ae. aegypti NPYLR7 (Aedes aegypti, UniProt U5N1H5); assay: In vitro calcium (GCaMP6s) FLIPR assay in HEK293T cells transfected with NPYLR7; format: cell-based
Chain of Ae. aegypti NPYLR7 (U5N1H5 entry or part of it): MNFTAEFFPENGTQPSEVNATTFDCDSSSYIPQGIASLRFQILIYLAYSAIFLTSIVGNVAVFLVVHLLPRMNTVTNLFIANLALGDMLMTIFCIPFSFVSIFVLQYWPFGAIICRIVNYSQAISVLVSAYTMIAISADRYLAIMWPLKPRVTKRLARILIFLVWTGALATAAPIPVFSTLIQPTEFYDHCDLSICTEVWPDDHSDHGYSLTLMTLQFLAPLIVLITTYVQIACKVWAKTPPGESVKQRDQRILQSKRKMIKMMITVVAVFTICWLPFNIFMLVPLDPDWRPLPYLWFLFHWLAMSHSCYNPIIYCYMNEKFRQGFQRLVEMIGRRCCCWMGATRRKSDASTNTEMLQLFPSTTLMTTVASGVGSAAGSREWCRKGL
Procedure, shortened: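 HEK293T cells transiently co-transfected with GCaMP6s, mouse Gqα15 and NPYLR7; FLIPR imaging every second for 5 min, compound (0–100 μM) added after 30 s baseline in HBSS + 20 mM HEPES. Response normalized to buffer (0%) and 10 μM FMRFa3 (100%); relative EC50 by four-parameter fit, replicates averaged.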

In the case of `CCCOc1ccc2c(C)nc(NC(=N)N)nc2c1` [TDI-014178], the “% feeding (females feeding to repletion)” value [1] is reported as 49.19%, the “Host-seeking relative to saline (test compound % host-seeking/average matched saline % host-seeking)” value ([2]; individual replicates, listed as TDI-04178) is reported as 0.93 and 1 and the “Attraction (relative to saline)” value ([2]; per-compound value of Fig. 3C) is reported as 0.93. It also gave an EC50 (Ae. aegypti NPYLR7; EC50 of the individual assay date/plate (assay date), read-out: EC50) of 2.25 µM, an EC50 (Ae. aegypti NPYLR7; Figure 1E Summary, third list (n = 39), read-out: Reported Metric (Summary list)) of 2.25 µM and an activation at 1.2346 µM (Ae. aegypti NPYLR7; HEK-293T, 1.2346 uM, single replicate, normalised response) of 42.7%. The activation at 3.7037 µM (Ae. aegypti NPYLR7; HEK-293T, 3.7037 uM, single replicate, normalised response) was 66.7%, the activation at 11.1111 µM (Ae. aegypti NPYLR7; HEK-293T, 11.1111 uM, single replicate, normalised response) was 86.6% and the activation at 33.3333 µM (Ae. aegypti NPYLR7; HEK-293T, 33.3333 uM, single replicate, normalised response) was 96.4%. For the same compound, the activation at 100 µM (Ae. aegypti NPYLR7; HEK-293T, 100 uM, single replicate of the dose-response curve, normalised response) was 100%, the EC50 (Ae. aegypti NPYLR7; relative EC50, percent effect relative to 10 μM FMRFa3, read-out: EC50) was 2.25 µM and the EC50 (Ae. aegypti NPYLR7; sheet Figure 3C, unit inferred, read-out: EC50) was 2.25 µM. The EC50 (Ae. aegypti NPYLR7; summary EC50 per compound (mean over assay dates), the unit is taken from the neighbouring EC50 (uM) column, read-out: Reported Metric) was 2.25 µM.
